# Experimental data as given in publication PMC6160999, “Pharmacokinetics, Tissue Distribution and Excretion of a Novel Diuretic (PU-48) in Rats” (Pharmaceutics, 2018).
# Where two headings read alike, the source gives them in different places.
# Tests used:
# [1] = Stability of PU-48 in rat plasma QC samples (HPLC); assay type: in vitro ADME; details: for Stability: Measured Concentration: n=3
# Method: HPLC Analysis and Method Validation
# The concentration of PU -48 prototype in biological sample (feces and plasma protein binding analysis) was determined using a validated high -performance liquid chromatographic (HPLC) method in our preliminary experiment. Briefly, the analysis was performed using a HPLC consistent of model 510 pump with a model 2487 ultraviolet detector, a model Rheodyne 7725 injector, and a column oven. The analytical conditions were as follows: the detection wavelength: 293 nm; analytical column: a reversed-phase Acclaim C18 (4.6 mm × 250 mm, 5.0 µm, Dionex); column temperature: 25 C; mobile phase: acetonitrile: distilled water at a ratio of 60: 40 ( v/v); flow rate: 1 mL/min. In this study, the methods for the feces samples, were evaluated for specificity, linearity, precision, accuracy and […]
# The intra- and inter-day precision and accuracy were determined by analyzing five replicates of QC samples (low, medium and high concentrations of 0.005, 0.08 and 1.6 µg/mL) at each QC level on the same day and on five consecutive days. The precision was expressed as the relative standard deviation (RSD) between the measured values and the targeted values. The pass c riterion was set at <15%. The accuracy was expressed as relative error (RE) between the measured values and the targeted values, which was set at < ± 15% (for the low concentration, the acceptance criterion was <20%). The stability of PU -48 in rat plasma w as determined by analyzing QC samples stored in different conditions, including room temperature and light irradiation for 24 h, post -preparation (the extracted samples were stored at 4°C for 96 h), three cycles of freeze and thaw (freezing at -20°C for 24 h and thawing at room temperature) and long-term stored at −20°C for 3 months. All of the QC samples for stability assessment were analyzed in triplicate.
# [2] = cited from earlier work
# [3] = tested on: plasma protein; assay: Plasma protein binding by equilibrium dialysis, human plasma; assay type: in vitro ADME; details: for Concentration in Buffer (post-dialysis) / Concentration in Plasma (post-dialysis) / Protein-Binding Ratio: human plasma, n=5; for Concentration in Buffer (post-dialysis) / Concentration in Plasma (post-dialysis): 37 °C 24 h
# Method: The concentration of PU-48 prototype in biological sample (feces and plasma protein binding analysis) was determined using a validated high-performance liquid chromatographic (HPLC) method our preliminary experiment (See Supplementary Materials HPLC Analysis and Method Validation). Briefly, the quantitative analysis of PU-48 was performed using a HPLC consistent of model 510 pump with a model 2487 ultraviolet detector, a model Rheodyne 7725 injector, and a column oven. The analytical conditions were as follows—The detection wavelength—293 nm; analytical column—a reversed-phase Acclaim C18 (4.6 mm × 250 mm, 5.0 µm, Dionex, Sunnyvale, CA, USA); column temperature—25 °C; mobile phase—acetonitrile—distilled water at a ratio of 60:40 (v/v); flow rate—1 mL/min. In this study, the methods for the feces samples were evaluated for specificity, linearity, precision, accuracy, and recovery (See Supplementary Materials Tables S4–S6).
# The binding ratio of PU-48 to plasma protein was determined by equilibrium dialysis. A volume of 1 mL of plasma with PU-48 (0.25, 1 and 4 µg/mL) was added to a semi-permeable membrane bag (plasma chamber), the bag was place into the other clean tube with 9 mL PBS (buffer chamber). The equilibrium dialysis was performed at 37 °C for 24 h. At the end of dialysis, 500 μL each of post-dialysis samples from the plasma and the buffer chambers were collected and analyzed by HPLC method. The plasma protein binding of PU-48 was calculated from the concentration of PU-48 in PBS (free concentration) and in plasma (free + bound) according to equation: Bound (%) = (Concplasma chamber − Concbuffer chamber)/Concplasma chamber × 100%.
# [4] = extracted rat plasma samples, post−preparative (at 4 °C for 96 h), actual 0.005 µg/mL
# [5] = extracted rat plasma samples, post−preparative (at 4 °C for 96 h), actual 0.08 µg/mL
# [6] = extracted rat plasma samples, post−preparative (at 4 °C for 96 h), actual 1.6 µg/mL
# [7] = rat plasma, freeze−thawing three cycles (at −20 °C), actual 0.005 µg/mL
# [8] = rat plasma, freeze−thawing three cycles (at −20 °C), actual 0.08 µg/mL
# [9] = rat plasma, freeze−thawing three cycles (at −20 °C), actual 1.6 µg/mL
# [10] = rat plasma, freezing storage (at −20 °C for 3 months), actual 0.005 µg/mL
# [11] = rat plasma, freezing storage (at −20 °C for 3 months), actual 0.08 µg/mL
# [12] = rat plasma, light and room temperature for 24 h, actual 0.005 µg/mL
# [13] = rat plasma, light and room temperature for 24 h, actual 0.08 µg/mL
# [14] = rat plasma, light and room temperature for 24 h, actual 1.6 µg/mL
structure (smiles),measurement,setting,value
"COC(=O)c1sc2nc3ccc(OC)cc3cc2c1N [PU-48, Methyl 3-amino-6-methoxythieno [2,3-b] quinoline-2-carboxylate]",Stability: Accuracy (RE),[1]; [4],−8.43%
same,Stability: Measured Concentration,[1]; [4],0.0046 ± 0.0006 µg/mL
same,Stability: Accuracy (RE),[1]; [5],−10.23%
same,Stability: Measured Concentration,[1]; [5],0.0718 ± 0.0019 µg/mL
same,Stability: Accuracy (RE),[1]; [6],−3.08%
same,Stability: Measured Concentration,[1]; [6],1.5507 ± 0.0904 µg/mL
same,Stability: Accuracy (RE),[1]; [7],−7.33%
same,Stability: Measured Concentration,[1]; [7],0.0046 ± 0.0004 µg/mL
same,Stability: Accuracy (RE),[1]; [8],−3.43%
same,Stability: Measured Concentration,[1]; [8],0.0773 ± 0.0055 µg/mL
same,Stability: Accuracy (RE),[1]; [9],−8.49%
same,Stability: Measured Concentration,[1]; [9],1.4641 ± 0.0840 µg/mL
same,Stability: Accuracy (RE),[1]; [10],−9.37%
same,Stability: Measured Concentration,[1]; [10],0.0045 ± 0.0002 µg/mL
same,Stability: Accuracy (RE),[1]; [11],−6.48%
same,Stability: Measured Concentration,[1]; [11],0.0748 ± 0.0058 µg/mL
same,Stability: Accuracy (RE),"[1]; rat plasma, freezing storage (at −20 °C for 3 months), actual 1.6 µg/mL",−10.15%
same,Stability: Accuracy (RE),[1]; [12],−9.278%
same,Stability: Measured Concentration,[1]; [12],0.0045 ± 0.0003 µg/mL
same,Stability: Accuracy (RE),[1]; [13],9.07%
same,Stability: Measured Concentration,[1]; [13],0.0873 ± 0.0011 µg/mL
same,Stability: Accuracy (RE),[1]; [14],−10.63%
same,Stability: Measured Concentration,[1]; [14],1.4299 ± 0.0296 µg/mL
same,Diuretic activity,"[2]; rodents, compared to the other thienoquinolin lead compounds",more potent diuretic activity
same,Diuretic activity,[2]; wild-type and UT-gene knockout mice,potent diuretic activity
same,Concentration in Buffer (post-dialysis),[3]; added 0.25 µg/mL,0.012 ± 0.003 µg/mL
same,Concentration in Plasma (post-dialysis),[3]; added 0.25 µg/mL,0.146 ± 0.008 µg/mL
same,Protein-Binding Ratio,[3]; added 0.25 µg/mL,91.60 ± 1.57%
same,Concentration in Buffer (post-dialysis),[3]; added 1 µg/mL,0.052 ± 0.003 µg/mL
same,Concentration in Plasma (post-dialysis),[3]; added 1 µg/mL,0.611 ± 0.027 µg/mL
same,Protein-Binding Ratio,[3]; added 1 µg/mL,91.48 ± 0.64%
same,Concentration in Buffer (post-dialysis),[3]; added 4 µg/mL,0.231 ± 0.029 µg/mL
same,Concentration in Plasma (post-dialysis),[3]; added 4 µg/mL,2.290 ± 0.093 µg/mL
same,Protein-Binding Ratio,[3]; added 4 µg/mL,89.90 ± 1.50%
same,fraction unbound at 24 h,"[3]; plasma, human, overall statement",< 0.1
